Results as given in patent US4558058A, “Substituted 1,4-dihydropyridines and their use as medicaments” (Cassella Aktiengesellschaft, priority 1982, dated 1985).

Tested on: helical strips of pulmonary artery of guinea pigs
Assay: calcium-antagonistic action: inhibition of CaCl2-induced contraction of potassium-depolarised helical strips of pulmonary artery
Type: cell-based
Settings: Cavia porcellus; guinea pig pulmonary artery strips, calcium-free Tyrode's solution, 40 mmol potassium, 0.5 mmol CaCl2; mean value from 4 to 6 strips; read-out: IC50 (concentration of the test substance which inhibits contraction by 50%)
Method: This entailed helical strips of pulmonary artery of guinea pigs being equilibrated in calcium-free Tyrode's solution and depolarised with 40 mmol of potassium. Addition of 0.5 mmol of CaCl2 then initiates contraction. The relaxant action of the test substance is determined by cumulative addition of concentrations increasing in steps of 1/2 log 10.

| IC50 | Compound |
| --- | --- |
| 2 nM | CC1=C(c2nnco2)C(c2cccc([N+](=O)[O-])c2)C(c2nnco2)=C(C)N1 [Example 3a, 1,4-Dihydro-2,6-dimethyl-3,5-di(1,3,4-oxadiazol-2-yl)-4-(3-nitrophenyl)pyridine] |
| 1.8 nM | CCc1noc(C2=C(C)NC(C)=C(C(=O)OCCOC)C2c2cccc(Cl)c2Cl)n1 (stereo not shown) [Example 4b, 2-Methoxyethyl 1,4-dihydro-2,6-dimethyl-4-(2,3-dichlorophenyl)-5-(3-ethyl-1,2,4-oxadiazol-5-yl)pyridine-3-carboxylate] |
| 2.4 nM | CCc1noc(C2=C(C)NC(C)=C(C(=O)OC)C2c2cccc(Cl)c2Cl)n1 (stereo not shown) [Example 4c, Methyl 1,4-dihydro-2,6-dimethyl-4-(2,3-dichlorophenyl)-5-(3-ethyl-1,2,4-oxadiazol-5-yl)pyridine-3-carboxylate] |
| 1 nM | CCc1nnc(C2=C(C)NC(C)=C(C(=O)OCCOC)C2c2cccc([N+](=O)[O-])c2)o1 (stereo not shown) [Example 4k, 2-Methoxyethyl 1,4-dihydro-2,6-dimethyl-4-(3-nitrophenyl)-5-(2-ethyl-1,3,4-oxadiazol-5-yl)pyridine-3-carboxylate] |
| 1.5 nM | CCc1nnc(C2=C(C)NC(C)=C(C(=O)OCCOC)C2c2cccc(Cl)c2Cl)o1 (stereo not shown) [Example 4m, 2-Methoxyethyl 1,4-dihydro-2,6-dimethyl-4-(2,3-dichlorophenyl)-5-(2-ethyl-1,3,4-oxadiazol-5-yl)pyridine-3-carboxylate] |
| 1.6 nM | CCOC(=O)c1sc(C2=C(C)NC(C)=C(C(=O)OCCOC)C2c2cccc([N+](=O)[O-])c2)nc1C (stereo not shown) [Example 5b, 2-Methoxyethyl 1,4-dihydro-2,6-dimethyl-4-(3-nitrophenyl)-5-(4-methyl-5-ethoxycarbonyl-2-thiazolyl)pyridine-3-carboxylate] |

Continued, compound first:

| Compound | IC50 |
| --- | --- |
| CC1=C(C(=O)OCC(C)C)C(c2cccc([N+](=O)[O-])c2)C(c2nnco2)=C(C)N1 (stereo not shown) [Example 1z, Isobutyl 1,4-dihydro-2,6-dimethyl-4-(3-nitrophenyl)-5-(1,3,4-oxadiazol-2-yl)pyridine-3-carboxylate] | 0.15 nM |
| COC(=O)C1=C(C)NC(C)=C(c2nnco2)C1c1cccc(Cl)c1Cl (stereo not shown) [Example 2b, Methyl 1,4-dihydro-2,6-dimethyl-4-(2,3-dichlorophenyl)-5-(1,3,4-oxadiazol-2-yl)pyridine-3-carboxylate] | 0.4 nM |
| COC(=O)C1=C(C)NC(C)=C(c2nnc(C)o2)C1c1cccc(Cl)c1Cl (stereo not shown) [Example 2e, Methyl 1,4-dihydro-2,6-dimethyl-4-(2,3-dichlorophenyl)-5-(5-methyl-1,3,4-oxadiazol-2-yl)pyridine-3-carboxylate] | 1.6 nM |
| CC1=C(C(=O)OC(C)C)C(c2cccc([N+](=O)[O-])c2)C(c2nnco2)=C(C)N1 (stereo not shown) [Example 2n, Isopropyl 1,4-dihydro-2,6-dimethyl-4-(3-nitrophenyl)-5-(1,3,4-oxadiazol-2-yl)pyridine-3-carboxylate] | 0.09 nM |
| COCCOC(=O)C1=C(C)NC(C)=C(c2nnco2)C1c1ccccc1[N+](=O)[O-] (stereo not shown) [Example 2o, 2-Methoxyethyl 1,4-dihydro-2,6-dimethyl-4-(2-nitrophenyl)-5-(1,3,4-oxadiazol-2-yl)pyridine-3-carboxylate] | 0.3 nM |
| COC(=O)C1=C(C)NC(C)=C(c2nc(Cc3ccccc3)no2)C1c1cccc([N+](=O)[O-])c1 (stereo not shown) [Example 2r, Methyl 1,4-dihydro-2,6-dimethyl-4-(3-nitrophenyl)-5-(3-benzyl-1,2,4-oxadiazol-5-yl)pyridine-3-carboxylate] | 0.5 nM |
| COC(=O)C1=C(C)NC(C)=C(c2nc(Cc3ccccc3)no2)C1c1cccc(Cl)c1Cl (stereo not shown) [Example 2s, Methyl 1,4-dihydro-2,6-dimethyl-4-(2,3-dichlorophenyl)-5-(3-benzyl-1,2,4-oxadiazol-5-yl)pyridine-3-carboxylate] | 0.7 nM |
| COC(=O)C1=C(C)NC(C)=C(c2nc(Cc3ccccc3)no2)C1c1ccccc1[N+](=O)[O-] (stereo not shown) [Example 2t, Methyl 1,4-dihydro-2,6-dimethyl-4-(2-nitrophenyl)-5-(3-benzyl-1,2,4-oxadiazol-5-yl)pyridine-3-carboxylate] | 1 nM |
| COCCOC(=O)C1=C(C)NC(C)=C(c2nc(Cc3ccccc3)no2)C1c1cccc([N+](=O)[O-])c1 (stereo not shown) [Example 2v, 2-Methoxyethyl 1,4-dihydro-2,6-dimethyl-4-(3-nitrophenyl)-5-(3-benzyl-1,2,4-oxadiazol-5-yl)pyridine-3-carboxylate] | 0.7 nM |
| COC(=O)C1=C(C)NC(C)=C(c2nc(Cc3ccccc3)no2)C1c1ccccc1Cl (stereo not shown) [Example 2w, Methyl 1,4-dihydro-2,6-dimethyl-4-(2-chlorophenyl)-5-(3-benzyl-1,2,4-oxadiazol-5-yl)pyridine-3-carboxylate] | 2.5 nM |
| CC1=C(C(=O)OCCOC(C)C)C(c2cccc(Cl)c2Cl)C(c2nnc(C)o2)=C(C)N1 (stereo not shown) [Example 2z1, 2-Isopropoxyethyl 1,4-dihydro-2,6-dimethyl-4-(2,3-dichlorophenyl)-5-(2-methyl-1,3,4-oxadiazol-5-yl)pyridine-3-carboxylate] | 1.5 nM |
| CC1=C(C(=O)OC(C)C)C(c2cccc(Cl)c2Cl)C(c2nnco2)=C(C)N1 (stereo not shown) [Example 2z2, Isopropyl 1,4-dihydro-2,6-dimethyl-4-(2,3-dichlorophenyl)-5-(1,3,4-oxadiazol-2-yl)pyridine-3-carboxylate] | 0.2 nM |

Same assay, conditions: guinea pig pulmonary artery strips, calcium-free Tyrode's solution, 40 mmol potassium, 0.5 mmol CaCl2; mean value from 4 to 6 strips; read-out: IC50 (concentration of the test substance which inhibits contraction by 50%)

| Compound | IC50 |
| --- | --- |
| 2-Methylethyl 1,4-dihydro-2,6-dimethyl-4-(3-cyanophenyl)-5-(3-methyl-1,2,4-oxadiazol-5-yl)pyridine-3-carboxylate [Example 1t] | 1.5 nM |
